# Tested on: 4-hydroxynonenal protein adducts (HNE) in tears
# Test: Phase 2/3 (TRANQUILITY) run-in cohort, ELISA of HNE-protein adducts in tears before and after dosing
# Type: in vivo, human
# Conditions: single doses of 0.25% reproxalap, average of two doses (Day 1 first dose, Day 2 post chamber), n=9; vehicle: increase of 32 pg/mL (n=7)
# Description: [table] Tear RASP levels will be assessed via MMRM of change from pre to post dose on Day 1 and Day 2, with baseline (pre-dose) scores as a covariate, and dose and test article group as factors. Secondary Endpoints: • Visual analog scale eye dryness score assessed over 24 hours after first dose on Day 1, and over 90 minutes in CAE® (Key Secondary Symptom Endpoint) • Ora Calibra® Ocular Discomfort Scale assessed over 24 hours after first dose on Day 1, and over 90 minutes in CAE® • Ocular Discomfort & 4-Symptom Questionnaire assessed over 24 hours after first dose on Day 1, and before and after CAE® • Ora Calibra® Conjunctival Allergen Challenge Ocular Itching Scale assessed over 24 hours after first dose on Day 1, and before and after CAE® • Schirmer's Test change from baseline before and after the final dose on Day 1 • Change in tear RASP levels before and after Dose 1 and 2 on Day 1 and Dose 3 on Day 2. Conjunctival redness over 24 hours after first dose on Day 1. Visit 2 (Day 1, Baseline and In-Office Dosing) • Medical/Medication Update • Adverse Event Query • Visual Acuity (ETDRS) • Slit Lamp Biomicroscopy • Symptom Questionnaires • a. Ocular Discomfort & 4-Symptom Questionnaire • b. […] Ora Calibra® Conjunctival Allergen Challenge Ocular Itching Scale • Slit Lamp Biomicroscopy • Intraocular Pressure • Dilated Exam • Study Exit Data for the run-in cohort was obtained and analyzed. […]
structure (smiles),measurement,value
"CC(C)(O)c1nc2ccc(Cl)cc2cc1N [reproxalap, Reproxalap]","average decline of HNE levels in tears, pre-dose to post-dose",1018 pg/mL

# Source: patent publication US20230228744A1, “DRY EYE DISEASE BIOMARKERS AND THEIR USE FOR TREATMENT” (Aldeyra Therapeutics, Inc., priority 2020, published 2023)
